This passage reports Emax and EC50 results from patent US20250002507A1, “7,8-DIHYDRO-5H-1,6-NAPHTHYRIDINE DERIVATIVES AS POSITIVE ALLOSTERIC MODULATORS OF THE MUSCARINIC ACETYLCHOLINE RECEPTOR M4 FOR TREATING NEUROLOGICAL AND PSYCHIATRIC DISORDERS” (Vanderbilt University, priority 2021, published 2025).

Where two headings read alike, the source gives them in different places.

The target in this assay is T1, Human M4 (Homo sapiens, UniProt P08173).
T1 construct: expressed in transfected cells
T1 sequence (P08173 1-479): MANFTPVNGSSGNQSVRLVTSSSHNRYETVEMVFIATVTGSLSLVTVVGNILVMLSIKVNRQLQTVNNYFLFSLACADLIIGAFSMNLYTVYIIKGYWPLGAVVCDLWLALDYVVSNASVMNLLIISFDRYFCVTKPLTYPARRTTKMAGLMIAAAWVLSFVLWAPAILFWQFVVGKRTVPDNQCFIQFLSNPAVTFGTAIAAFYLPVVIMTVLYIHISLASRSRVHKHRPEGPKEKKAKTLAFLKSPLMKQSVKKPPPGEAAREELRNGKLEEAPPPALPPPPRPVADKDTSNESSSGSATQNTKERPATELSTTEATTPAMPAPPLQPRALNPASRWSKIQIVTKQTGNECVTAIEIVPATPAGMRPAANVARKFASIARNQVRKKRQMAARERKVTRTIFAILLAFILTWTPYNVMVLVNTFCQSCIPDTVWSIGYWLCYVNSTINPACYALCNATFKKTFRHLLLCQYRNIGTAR
Nature of the assay: mAChR M4 cell-based functional assay (calcium flux, potentiation of EC20 acetylcholine response), hM4-Gqi5 CHO-K1 cells. As to conditions: for Emax at 30 µM: CHO-K1, % ACh maximum at 30 μM. Summed up:
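Positive allosteric modulation was scored as a concentration-dependent rise in the response to an EC20 dose of acetylcholine, added 144 s after the compound. Human M4-Gqi5 CHO-K1 cells carried Fluo-4 dye, and compounds ran as 11-point, 3-fold dilution series. EC50 and Emax came from four-parameter logistic fits of the FDSS fluorescence-ratio traces.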
A general note: Calcium flux is commonly read through the fluorescence of an indicator in the cells.

The mark [1] stands for this setting: Table 4, Human M4, read-out: Emax (% ACh maximum at 30 μM).
The mark [2] stands for this setting: Table 4, potentiation of EC20 acetylcholine response, calcium flux, CHO-K1 cells, read-out: Human M4 EC50.
Where [3] appears, read: hM4-Gqi5 CHO-K1 cells, calcium flux, PAM of EC20 acetylcholine, read-out: Human M4 EC50.
The mark [4] stands for this setting: Table 3, Human M4, read-out: Emax (% ACh maximum at 30 μM).
Setting [5] is: Table 3, potentiation of EC20 acetylcholine response, calcium flux, CHO-K1 cells, read-out: Human M4 EC50.

What is called Emax is the greatest response seen or fitted, relative to the assay's reference. A word on the EC50: it is the concentration needed to bring the measured effect to its halfway point. In the case of `Cc1cc2nncn2nc1N1Cc2cc(N3CCOCC3)cnc2C(C)C1` (stereo not shown) [Compound 330, 4-(8-methyl-6-(7-methyl-[1,2,4]triazolo[4,3-b]pyridazin-6-yl)-5,6,7,8-tetrahydro-1,6-naphthyridin-3-yl)morpholine], the Emax at 30 µM under setting [1] was 83%. Further, under setting [2], the concentration for a half-maximal effect (EC50) worked out at 2150 nM.
`Cc1c(N2CCc3ncc(C(F)(F)F)cc3C2)nn2cnnc2c1C` [Compound 127, 6-(7,8-dimethyl-[1,2,4]triazolo[4,3-b]pyridazin-6-yl)-3-(trifluoromethyl)-7,8-dihydro-5H-1,6-naphthyridine]: the maximum response (Emax) at 30 µM (human M4, read-out: Emax) was found to be 107%. Further, the 50% effective concentration (EC50) under setting [3] is 151 nM.
`COc1ncc(-c2cnc3c(c2)CN(c2nn4cnnc4c(C)c2C)CC3)cc1F` [Compound 176, 6-(7,8-dimethyl-[1,2,4]triazolo[4,3-b]pyridazin-6-yl)-3-(5-fluoro-6-methoxypyridin-3-yl)-5,6,7,8-tetrahydro-1,6-naphthyridine]: the EC50 was 587 nM. For the same molecule, the Emax (CHO-K1, read-out: Emax (% ACh maximum at 30 μM)) is 89%.
`Cc1c(N2CCc3ncc(Nc4ccc(F)cc4F)cc3C2)nn2cnnc2c1C` [Compound 70, N-(2,4-difluorophenyl)-6-(7,8-dimethyl-[1,2,4]triazolo[4,3-b]pyridazin-6-yl)-7,8-dihydro-5H-1,6-naphthyridin-3-amine]: for the setting “human M4, read-out: Emax”, the Emax at 30 µM was determined as 101%. Besides, under setting [3], the half-maximal effective concentration (EC50) turned out to be 205 nM.
`CC(=O)Nc1cnc2c(c1)CN(c1nn3cnnc3c(C)c1C)CC2` [Compound 153, N-(6-(7,8-dimethyl-[1,2,4]triazolo[4,3-b]pyridazin-6-yl)-5,6,7,8-tetrahydro-1,6-naphthyridin-3-yl)acetamide]: under setting [4], the Emax at 30 µM was 84%. In addition, the concentration giving a half-maximal response (EC50) under setting [5] is 3380 nM.
`Cc1c(N2CCc3ncc(C(=O)N4CC(F)C4)cc3C2)nn2cnnc2c1C` [Compound 117, [6-(7,8-dimethyl-[1,2,4]triazolo[4,3-b]pyridazin-6-yl)-7,8-dihydro-5H-1,6-naphthyridin-3-yl]-(3-fluoroazetidin-1-yl)methanone]: where the note is “human M4, read-out: Emax”, the maximal response (Emax) at 30 µM worked out at 67%.
As to `Cc1c(N2CCc3ncc(N4CCCCC4)cc3C2)nn2cnnc2c1C` [Compound 16, 6-(7,8-dimethyl-[1,2,4]triazolo[4,3-b]pyridazin-6-yl)-3-(1-piperidyl)-7,8-dihydro-5H-1,6-naphthyridine], where the note is “human M4, read-out: Emax”, the maximal response (Emax) at 30 µM worked out at 89%. Also, the EC50 under setting [3] is 789 nM.
`c1cc2n(n1)CCCN2c1cnc2c(c1)CN(c1nn3cnnc3c3c1CCCC3)CC2` [Compound 344, 6-(3-(6,7-dihydropyrazolo[1,5-a]pyrimidin-4(5H)-yl)-7,8-dihydro-1,6-naphthyridin-6(5H)-yl)-7,8,9,10-tetrahydro-[1,2,4]triazolo[3,4-a]phthalazine]: the maximal response (Emax) at 30 µM under setting [1] came to 73%. Further, the 50% effective concentration (EC50) under setting [2] was 547 nM.
As to `Cc1c(N2CCc3ncc(-c4ccn(C)n4)cc3C2)nn2c(C(F)(F)F)nnc2c1C` [Compound 254, 6-(7,8-dimethyl-3-(trifluoromethyl)-[1,2,4]triazolo[4,3-b]pyridazin-6-yl)-3-(1-methyl-1H-pyrazol-3-yl)-5,6,7,8-tetrahydro-1,6-naphthyridine], the Emax at 30 µM under setting [4] turned out to be 76%. Also, under setting [5], the EC50 worked out at 494 nM.
With `Cc1cc2nnc(C(F)(F)F)n2nc1N1CCc2ncc(Oc3cc(F)ccc3F)cc2C1` [Compound 298, 3-(2,5-difluorophenoxy)-6-(7-methyl-3-(trifluoromethyl)-[1,2,4]triazolo[4,3-b]pyridazin-6-yl)-5,6,7,8-tetrahydro-1,6-naphthyridine], the Emax at 30 µM under setting [4] stood at 109%. Under setting [5], the EC50 is 379 nM.
`Cc1c(N2CCc3ncc(N4CCC5OCCCC5C4)cc3C2)nn2c(C(F)(F)F)nnc2c1C` (stereo not shown) [Compound 273, 6-(6-(7,8-dimethyl-3-(trifluoromethyl)-[1,2,4]triazolo[4,3-b]pyridazin-6-yl)-5,6,7,8-tetrahydro-1,6-naphthyridin-3-yl)octahydro-2H-pyrano[3,2-c]pyridine]: the maximal effect (Emax) at 30 µM under setting [4] worked out at 83%. The EC50 under setting [5] amounted to 816 nM.
For the molecule `[2H]c1nnc2c(C)c(C)c(N3CCc4ncc(-c5cncs5)cc4C3)nn12` [Compound 78, 5-[6-(3-deuterio-7,8-dimethyl-[1,2,4]triazolo[4,3-b]pyridazin-6-yl)-7,8-dihydro-5H-1,6-naphthyridin-3-yl]thiazole], the Emax at 30 µM (human M4, read-out: Emax) was 92%. Moreover, the concentration for a half-maximal effect (EC50) under setting [3] was determined as 63.9 nM.
As for `Cc1c(N2CCc3ncc(-c4cnn(C)c4)cc3C2)nn2c(C(F)(F)F)nnc2c1C` [Compound 240, 6-(7,8-dimethyl-3-(trifluoromethyl)-[1,2,4]triazolo[4,3-b]pyridazin-6-yl)-3-(1-methyl-1H-pyrazol-4-yl)-5,6,7,8-tetrahydro-1,6-naphthyridine], the Emax at 30 µM under setting [4] was 77%. Further, the concentration giving a half-maximal response (EC50) under setting [5] was 158 nM.
On to `CCOC(=O)c1c(C)nc2cc(C)c(N3CCc4ncc(C(F)(F)F)cc4C3)nn12` [Compound 337, ethyl 2,7-dimethyl-6-(3-(trifluoromethyl)-7,8-dihydro-1,6-naphthyridin-6(5H)-yl)imidazo[1,2-b]pyridazine-3-carboxylate], for which, under setting [1], the Emax at 30 µM worked out at 61%. Under setting [2], the EC50 is 1610 nM.
`Cc1c(N2CCc3ncc(C(=O)NCC4CCCOC4)cc3C2)nn2cnnc2c1C` (stereo not shown) [Compound 116, 6-(7,8-dimethyl-[1,2,4]triazolo[4,3-b]pyridazin-6-yl)-N-(tetrahydropyran-3-ylmethyl)-7,8-dihydro-5H-1,6-naphthyridine-3-carboxamide]: the Emax at 30 µM (human M4, read-out: Emax) came to 75%.
Take `Cc1cc2nncn2nc1N1CCc2ncc(-c3ccc(C4CC4)nc3)cc2C1` [Compound 197, 3-(6-cyclopropylpyridin-3-yl)-6-(7-methyl-[1,2,4]triazolo[4,3-b]pyridazin-6-yl)-5,6,7,8-tetrahydro-1,6-naphthyridine]: the Emax at 30 µM under setting [4] amounted to 82%. Besides, the half-maximal effective concentration (EC50) under setting [5] was 176 nM.
With `Cc1c(N2CCc3ncc(-c4ccc(N5CC[C@@H](F)C5)nc4)cc3C2)nn2c(C(F)(F)F)nnc2c1C` [Compound 249, (R)-6-(7,8-dimethyl-3-(trifluoromethyl)-[1,2,4]triazolo[4,3-b]pyridazin-6-yl)-3-(6-(3-fluoropyrrolidin-1-yl)pyridin-3-yl)-5,6,7,8-tetrahydro-1,6-naphthyridine], the maximum response (Emax) at 30 µM under setting [4] worked out at 65%. In addition, the half-maximal effective concentration (EC50) under setting [5] came out at 1210 nM.
Turning to `Cc1c(N2CCc3ncc(-c4ccc(N5CC[C@H](F)C5)nc4)cc3C2)nn2c(C(F)(F)F)nnc2c1C` [Compound 250, (S)-6-(7,8-dimethyl-3-(trifluoromethyl)-[1,2,4]triazolo[4,3-b]pyridazin-6-yl)-3-(6-(3-fluoropyrrolidin-1-yl)pyridin-3-yl)-5,6,7,8-tetrahydro-1,6-naphthyridine], under setting [4], the maximal effect (Emax) at 30 µM worked out at 60%. In addition, the EC50 under setting [5] worked out at 1250 nM.
Consider `Cc1c(N2CCc3ncc(Nc4ccncc4F)cc3C2)nn2cnnc2c1C` [Compound 361, 6-(7,8-dimethyl-[1,2,4]triazolo[4,3-b]pyridazin-6-yl)-N-(3-fluoropyridin-4-yl)-5,6,7,8-tetrahydro-1,6-naphthyridin-3-amine], for which the Emax at 30 µM under setting [1] stood at 100%. Moreover, the half-maximal effective concentration (EC50) under setting [2] came to 2 nM.
For the molecule `Cc1c(N2CCc3ncc(Nc4ccccc4Cl)cc3C2)nn2cnnc2c1C` [Compound 50, N-(2-chlorophenyl)-6-(7,8-dimethyl-[1,2,4]triazolo[4,3-b]pyridazin-6-yl)-7,8-dihydro-5H-1,6-naphthyridin-3-amine], the maximal response (Emax) at 30 µM (human M4, read-out: Emax) was 85%. The half-maximal effective concentration (EC50) under setting [3] came to 211 nM.
With `Cc1c(N2CCc3ncc(OCc4ccccc4)cc3C2)nn2cnnc2c1C` [Compound 265, 3-(benzyloxy)-6-(7,8-dimethyl-[1,2,4]triazolo[4,3-b]pyridazin-6-yl)-5,6,7,8-tetrahydro-1,6-naphthyridine], the maximum response (Emax) at 30 µM under setting [4] was 74%. Moreover, the EC50 under setting [5] is 724 nM.
As for `Cc1cc2nccn2nc1N1CCc2ncc(-c3ccnn3C)cc2C1` [Compound 139, 6-(7-methylimidazo[1,2-b]pyridazin-6-yl)-3-(2-methylpyrazol-3-yl)-7,8-dihydro-5H-1,6-naphthyridine], for the setting “human M4, read-out: Emax”, the maximum response (Emax) at 30 µM is 83%. In addition, the EC50 under setting [3] was found to be 433 nM.
Taken in the same sequence, the figures for `Cc1ccc(-c2cnc3c(c2)CN(c2nn4cnnc4c(C)c2C)CC3)cn1` [Compound 39, 6-(7,8-dimethyl-[1,2,4]triazolo[4,3-b]pyridazin-6-yl)-3-(6-methyl-3-pyridyl)-7,8-dihydro-5H-1,6-naphthyridine] were 95% and 115 nM.
Regarding `Cc1cc2nnc(C(F)(F)F)n2nc1N1CCc2ncc(C(F)(F)F)cc2C1` [Compound 319, 6-(7-methyl-3-(trifluoromethyl)-[1,2,4]triazolo[4,3-b]pyridazin-6-yl)-3-(trifluoromethyl)-5,6,7,8-tetrahydro-1,6-naphthyridine], under setting [1], the Emax at 30 µM is 96%. Also, the concentration for a half-maximal effect (EC50) under setting [2] stood at 794 nM.
